The test system of data set [1] is human cytomegalovirus (HCMV) (AD-169). Kind of data set: microbe, parasite or virus in culture. In kind it is cell-based. Particulars: read-out: EC50 HCMV (AD-169).
The test system of data set [2] is human cytomegalovirus (HCMV) (Davis). The experiment in a line: microbe, parasite or virus in culture. The class given is cell-based. Conditions: read-out: EC50 HCMV (Davis).
Data set [3] relates to herpes simplex virus 1 (HSV-1) (KOS). The experiment in a line: microbe, parasite or virus in culture. The class given is cell-based. Particulars: read-out: EC50 HSV-1 (KOS).
A further data set concerns HSV-2 (G). Kind of data set: microbe, parasite or virus in culture. The class given is cell-based, herpes simplex virus 2. Particulars: read-out: EC50 HSV-2 (G).
Another data set relates to HSV-1 (KOS ACV) TK−. The experiment in a line: microbe, parasite or virus in culture. In kind it is cell-based, herpes simplex virus 1.
The test system of a further data set is Vaccinia Virus. The experiment in a line: microbe, parasite or virus in culture. The class given is cell-based. Conditions: read-out: EC50 Vaccinia Virus.
The subject of data set [4] is VZV-BAC-Luc strain (wild type). The experiment in a line: microbe, parasite or virus in culture. In kind it is cell-based, varicella zoster virus. Conditions: read-out: approximate EC50, wild type VZV.
The subject of data set [5] is VZV-BAC-Luc TK− strain (ACV^R). Kind of data set: microbe, parasite or virus in culture. In kind it is cell-based, varicella zoster virus. Particulars: read-out: approximate EC50, ACV^R VZV.
The subject of data set [6] is VZV-BAC-Luc in human fetal skin. The experiment in a line: Human skin organ culture model of VZV replication. The class given is cell-based, varicella zoster virus. Conditions: for VZV yield in skin organ culture compared to vehicle: Day 11, cidofovir 5 μM, 5 at 1 and 5 μM (p<0.0001 vs vehicle).
The subject of a further data set is VZV-BAC-Luc. The experiment in a line: SCID-Hu mouse model of VZV replication (human fetal skin xenografts). In kind it is in vivo, CB.17 scid/beige male mice. Particulars: for VZV spread / virus yield (Total Flux) vs Vehicle: once daily Days 0-8, 5 26 mg/kg subcutaneous, cidofovir 10 mg/kg intraperitoneal, yield compared Day 9, p=0.0051. How it is done: SCID-Hu mouse model of VZV replication. CB.17 scid/beige male mice (Charles River) were implanted subcutaneously with human fetal skin (the same type of specimens used for the skin organ culture assay). After 3-4 weeks engraftment, the skin implants were inoculated with VZV-BAC-Luc or VZV-ORF57-Luc. The mice were divided into groups (N=10-13) for treatment or controls. The positive control antiviral drug was cidofovir, 10 mg/kg/day given by intraperitoneal injection. The negative control was the vehicle Cremophor-DMSO-saline (1:1:8) given by subcutaneous injection. The treatment groups were 5 in Cremophor-DMSO-saline, 26, 13, or 6.5 mg/kg/day, given by subcutaneous injection. Treatment began 2 hours or 3 days after the inoculation surgery and continued daily or alternating days for up to 9 days. The mice were scanned in the IVIS-200 instrument daily from Day 1-10. The mice were weighed before the start of the study and daily during the treatment phase.
Statistical analysis: The results were analyzed for statistical significance by Student's t test or by ANOVA and Dunnett's post hoc test of multiple comparisons (GraphPad Prism).
CB.17 scid/beige male mice were implanted subcutaneously with human fetal skin (the same type of specimens used for the skin organ culture assay). After 3-5 weeks engraftment period, the skin implants were inoculated with VZV-BAC-Luc. The mice were divided into 3 groups of 10-13 mice: vehicle (Cremophor-DMSO-saline 1:1:8), cidofovir 10 mg/kg in saline, and 5 26 mg/kg in Cremophor-DMSO-saline. 5 at 26 mg/kg is the molar equivalent dose to cidofovir 10 mg/kg. Cidofovir was given by the intraperitoneal route, once daily, from Days 0-8. Vehicle and 5 were given by the subcutaneous route, once daily, from Days 0-8. The mice were scanned in the IVIS-200 instrument daily from Day 1-9 and the Total Flux values indicated VZV-infected cells in the skin xenografts (FIG. 3). […] VZV grew normally in the Vehicle group.
In addition, a dose-ranging and delayed treatment assay was included to determine the lowest effective dose (FIGS. 5A and 5B). As before, 5 26 mg/kg was given once daily, by the subcutaneous route, from Days 0-6. This group was compared to Vehicle (Cremophor-DMSO-saline). In the dose ranging assay, 5 high dose (26 mg/kg), medium dose (13 mg/kg) or low dose (6.5 mg/kg) was given once daily, by the subcutaneous route, from Days 3-9. The treatment phase was delayed to Day 3 because this is more clinically relevant.
(In general: Xenograft models place foreign cells or tissue in a host animal.)

Another data set in a line: in vitro. Conditions: human, Cytotoxicity CC50.
The nature of data set [7]: Weight and condition of mice during treatment in the SCID-Hu model. Particulars: for change in weight during the treatment phase: first study, Days 0-8, 5 26 mg/kg sc, cidofovir 10 mg/kg ip.
Data set [8] has as its system varicella-zoster virus (VZV) TK+ (OKA). Kind of data set: microbe, parasite or virus in culture. In kind it is cell-based. Conditions: read-out: EC50 VZV TK+ (OKA).
The test system of a further data set is Feline Herpes Virus. The experiment in a line: organism not typed. The class given is cell-based. Conditions: read-out: EC50 Feline Herpes Virus.
The test system of the next data set is Equine Herpes V 1. In kind it is cell-based, Equine herpes virus.
The subject of the next data set is Equine Herpes V 4. Kind of data set: Virus infection assay, Equine Herpes V 4, permissive cells. The class given is cell-based. How it is done: (§1) 2. Virus Infection (Protocols for: Adeno Virus, Cytomegalo Virus, Poxvirus, Myxo Virus, Equine Herpes Virus)
(§2) Cognate permissive cell lines were used for each virus infection assay.
(§3) Cells were grown in DMEM without phenol red (Sigma-Aldrich) 10% SVF, Pen-strep, 1× sodium pyruvate, 1× Glutamax.
(§4) Virus infection was carried out on permissive cells seeded in either in 96 wells plate or in 6 well plates, in duplicate at one or two MOI (multiplicity of infection) and 7 concentrations of LA6. • Day 0: cells seeded at 10 k per well in Corning Glass Bottom 96 well plates in 200 μl of DMEM without phenol red or 200 k in 6 well plates. • Day 1: cells were treated with LA6 (from 1 to 0.0037 μM by […] dilutions) in duplicate and were infected at different MOI according to the tested virus • Day 2 to day 7: cells were fixed with Formalin 10 min at room temperature. Cells were washed with 200 μL PBS and 100 μL PBS/Hoechst® 33342 (1/1000) per well. 96 well plates were kept at 4° C. in the dark until data acquisition Image acquisition and analysis for high content quantification was performed on a Thermo Cellomics Arrayscan™ VTI microscope using a modified compartmental analysis algorithm for fluorescent virus. For unmodified virus, ECP progression or plaque count was determined visually by double blind analysis.

The subject of another data set is Vaccinia Virus TK−. In kind it is cell-based.
Another data set deals with Adeno virus. The experiment in a line: Virus infection assay, Adeno virus, permissive cells. In kind it is cell-based. As to the method:
as §1, §2, §3, §4

The test system of the next data set is Myxomatosis Virus (MYXV). In kind it is cell-based.
A further data set deals with HBV. The experiment in a line: Anti-HBV activity, Huh7 cells transfected with pHBV1.1×, intra-capsid viral DNA by real-time PCR. In kind it is cell-based, Hepatitis B virus. Conditions: 7 days, read-out: IC50 (HBV replication) (converted). On the technique in general: Real-time PCR tracks product formation cycle by cycle.
Data set [9] concerns HSV-1, HSV-2, HSV-1 (TK−), VV, FHV. The class given is cell-based.
In a further data set the test system is HEL cells. Particulars: read-out: Cytotoxicity CC50; concentration reducing cell growth by 50%; HCMV/VZV table.
[10] abbreviates: Human alphaherpesvirus 3, ARPE-19, 72 h.
Where [11] appears, read: ARPE-19 cells, 3 days, bioluminescence, estimated by interpolation.

Read-outs that look alike come from different tables or passages of the source.

A word on the EC50: it is the concentration that produces a half-maximal response. What is called CC50 is the concentration at which the toxic effect on the cells reaches its halfway point. In the case of `Nc1ccn(C[C@@H](CO)OCP(=O)(O)O)c(=O)n1` [Cidofovir, reference compound], the half-maximal effective concentration (EC50) in data set [1] (Human betaherpesvirus 5, AD169, HEL) was determined as 1.2 µM; in data set [2] (Human betaherpesvirus 5, HEL), 1 µM; in [3] (Human alphaherpesvirus 1, HEL) it was 4.5 µM; in the data set with HSV-2 (G) (Human alphaherpesvirus 2, HEL) it was 1 µM; with HSV-1 (KOS ACV) TK− (Human alphaherpesvirus 1, read-out: EC50 HSV-1 (KOS ACV) TK−), 2.8 µM; in the data set with Vaccinia Virus (Orthopoxvirus vaccinia, HEL), 112 µM. For the same molecule, the EC50 in [4] (setting [10]) and in data set [5] (setting [10]) was ~2.5 µM in each case. Further, the “VZV yield in skin organ culture compared to vehicle” value in data set [6] was “effective”. In the data set with VZV-BAC-Luc, the “VZV spread / virus yield (Total Flux) vs Vehicle” value is “prevented VZV spread”. In addition, the “Cytotoxicity MCC” value in the data set on HEL cell cultures (human) was >100 µM. For the same molecule, in the data set “in vitro”, the CC50 is > 100 µM. Also, the “change in weight during the treatment phase” value in data set [7] is “moderate weight loss”.

Usually IC50 stands for the concentration that gives 50% inhibition. On to “[(Z)-2-[(2,6-diaminopyrimidin-4-yl)oxymethyl]-4-[3-hexadecoxypropoxy (isopropoxycarbonyloxymethoxy)phosphoryl]but-2′-enyl]acetate [Compound (5)]”, for which the EC50 in data set [1] came to 1.79 µM; in [2] it was 0.7 µM; in [8], 0.0035 µM; in data set [3], 0.043 ± 0.037 µM; in the data set on HSV-2 (G), 0.015 µM; in the data set with HSV-1 (KOS ACV) TK− (read-out: EC50 HSV-1 (KOS ACV) TK−), 0.008 ± 0.002 µM. In addition, the concentration giving a half-maximal response (EC50) in the data set on Vaccinia Virus was 0.115 ± 0.11 µM; in the data set on Feline Herpes Virus it was 0.35 µM; in the data set with Equine Herpes V 1 it was < 0.125 µM; in the data set with Equine Herpes V 4, < 0.125 µM; with Vaccinia Virus TK− (read-out: EC50 Vaccinia Virus TK−), < 0.03 µM; with Vaccinia Virus TK− (read-out: EC50 vaccicnia virus TK-), < 0.03 µM. The concentration giving a half-maximal response (EC50) was < 0.037 µM in the data set on Adeno virus; < 0.037 µM in the data set on Adeno virus (text statement); 0.051 µM with Myxomatosis Virus (MYXV); ~0.01 µM in data set [4] (setting [11]); ~0.01 µM in data set [5] (setting [11]); < 0.35 µM in data set [9] (read-out: EC50 against both tested viruses). Besides, the half-inhibitory concentration (IC50) with HBV was 0.4 µM. Besides, the “VZV yield in skin organ culture compared to vehicle” value in data set [6] is on record as “effective”. For the same molecule, the “concentration preventing VZV spread in skin” value in [6] (skin organ culture) was ≥ 1 µM. Also, the “antiviral effect, delayed treatment, low dose” value in the data set on VZV-BAC-Luc (6.5 mg/kg once daily subcutaneous Days 3-9, yield Day 10 p=0.029) was “equally effective”. Moreover, in the data set on VZV-BAC-Luc (13 mg/kg once daily subcutaneous Days 3-9, yield Day 10 p=0.029), the “antiviral effect, delayed treatment, medium dose” value is “equally effective”. In the data set on VZV-BAC-Luc (26 mg/kg once daily subcutaneous Days 0-6, p=0.008), the “Virus yield on Day 7 vs Vehicle” value was “significantly less than the Vehicle group”. Further, the “antiviral effect, delayed treatment, high dose” value with VZV-BAC-Luc (26 mg/kg once daily subcutaneous Days 3-9, yield Day 10 p=0.029) is on record as “also effective”. Also, the “VZV spread / virus yield (Total Flux) vs Vehicle” value with VZV-BAC-Luc is reported as “prevented VZV spread”. In addition, the “low dose effectively preventing VZV spread” value with VZV-BAC-Luc (once daily subcutaneous Days 3-9) came out at 6.5 mg/kg. Further, in data set [9], the “activity level against HSV-1, HSV-2, HSV-1 (TK−), VV, FHV” value was “micromolar and sub-micromolar activities”. Moreover, the “Cytotoxicity MCC” value in the data set with HEL cell cultures was 60 µM. Further, in the data set on HEL cells, the CC50 turned out to be 0.66 µM. Moreover, in data set [7], the “change in weight during the treatment phase” value is “did not cause weight loss”. Also, in data set [7] (repeat and dose-ranging study, 6.5-26 mg/kg sc), the “overt toxicity (weight and condition of the mice)” value is “did not cause overt toxicity”.

With “[(E)-2-[(2,6-diaminopyrimid in-4-yl)oxymethyl]-4-[3-hexadecoxypropoxy (isopropoxycarbonyloxymethoxy)phosphoryl]but-2′-enyl]acetate [Compound 13]”, the IC50 in the data set with HBV is 1.6 µM.

These data come from patent US11603380B2 (Centre national de la recherche scientifique, priority 2018, dated 2023).
